From patent US20260315462A1, “METHODS OF TREATING RELAPSING MULTIPLE SCLEROSIS USING AN INHIBITOR OF BRUTON'S TYROSINE KINASE” (Genentech, Inc., priority 2023, published 2026)
Like-named read-outs stand apart in the source and are kept apart here.

Tests used:
Type in all cases: in vivo, human
[1] = test system: new T1-hypointense lesions on MRI; experiment: New T1-hypointense lesions on MRI, Phase II RMS study (exploratory endpoint)
Text: (§1) This Phase II study was undertaken to evaluate the effect of fenebrutinib on brain magnetic resonance imaging (MRI) in participants with RMS. Participants were randomized to receive either fenebrutinib or placebo. In addition to MRI evaluations, participants were also monitored for other clinical outcomes of disease, including disability progression and MS relapse, as described more fully below.
(§2) Study Design: This clinical trial comprised a double-blind treatment (DBT) phase, where participants were randomized in a 2:1 ratio to receive either 200 mg BID oral fenebrutinib or non-active placebo, administered for 12 weeks. Participants were directed to self-administer two 100 mg tablets in the morning and two 100 mg tablets in the evening by mouth, for a total dose of 400 mg of fenebrutinib (or placebo) every day.
(§3) A total of 109 adults aged 18-55 with RMS were enrolled in the study: 73 in the fenebrutinib arm, and 36 in the placebo arm. […] Accordingly, the analysis of outcome for the double blind phase of the study included 70 patients in the fenebrutinib arm, and 36 patients in the placebo arm.
(§4) Exploratory Endpoints: Exploratory endpoints included the total number of new T1-hypointense lesions on MRI at weeks 4, 8, and 12; the fenebrutinib concentration in CSF collected at baseline and at or after Week 12; and plasma pharmacokinetics.
Results: Exploratory Endpoint-Hypointense T1 Lesions: The number of T1 hypointense lesions was evaluated at Week 4, 8, and 12 as an exploratory endpoint. […] FIG. 4 provides bar graphs illustrating some of the data in this table and providing additional analyses. In this figure, the large arrows indicate the relative reduction (95% confidence interval) of lesions. The proportion of patients with new T1 hypointense lesions is the number of participants that have a new lesion at that specific visit alone divided by the number of participants with a scan at that specific visit alone at the indicated week. There was a 58% reduction and only 3.2% of patients with new hypointense T1 lesions at Week 12.

[2] = Fenebrutinib concentration in CSF and plasma after 12 weeks of continuous administration (exploratory endpoint)
Text: as §4
Results: Exploratory Endpoint-Evaluation of CSF: Cerebrospinal samples (CSF) were taken from 11 patients following 12 weeks of continuous fenebrutinib administration. A blood plasma sample was taken at the same time for 4 of the 11 patients. The concentration of fenebrutinib in CSF at 12 Weeks was evaluated, and presented in FIG. 5 in comparison to the IC50 of fenebrutinib (active inhibitory threshold) and the IC90 of fenebrutinib (maximal inhibitory threshold) as evaluated in different in vitro assays. From the figure, (a) the mean fenebrutinib CSF concentration is following 12 weeks of continuous fenebrutinib administration; (1) the data for CD63 and CD69 assays was previously presented as Weber M S, et al. at AAN 2021 Virtual Annual Meeting, April 17-22. (P15.091); and (2) the data for the phospho-BTK assay was previously presented in Keaney J, et al. J Neuroimmune Pharmacol 2019; 14:448-461. Analysis of fenebrutinib concentration in CSF, plasma, and the ratio for the four patients for which a plasma sample was taken is provided in Table 11.
CD63 is a myeloid lineage cell activation marker; CD69 is a B-cell activation marker; the phospho-BTK assay evaluates target engagement through inhibition of anti-IgM induced BTK Y223 autophosphorylation in human whole blood. Procedures for performing these three assays may be found in Crawford J J, et al. J Med Chem 2018; 6:2227-2245. Fenebrutinib has a dual mechanism of action, inhibiting both B-cell and myeloid lineage cell activation.

[3] = Safety: adverse events in Phase II RMS study; settings: for Patients with ≥1 AE, %: 200 mg BID oral, 12 weeks, placebo 33.3
Procedure: as §2, §3
Results—Safety Summary: A summary of adverse events (AEs) for patients treated with fenebrutinib, and with placebo, is provided in Table 12.

[4] = test system: new Gd-enhancing T1 lesions and new or enlarging T2-weighted lesions on brain MRI; experiment: Proportion of participants free from any new Gd-enhancing T1 lesions and new or enlarging T2-weighted lesions on brain MRI, Phase II RMS study (secondary endpoint)
Text: as §1, §2, §3
MRI Measurements: The primary efficacy endpoint for this study was the total number of new gadolinium-enhancing T1 (T1Gd+) lesions on brain MRI measured at Weeks 4, 8, and 12 of administration. The secondary efficacy outcomes were (1) the total number of new or enlarging T2-weighted lesions on brain MRI measured at Weeks 4, 8, and 12, and (2) the proportion of participants free from any new Gd-enhancing T1 lesions and new or enlarging T2-weighted lesions observed on brain MRI at Weeks 4, 8, and 12. Radiologic evaluation for the primary efficacy parameter was performed using a standardized MRI protocol at screening, and at Weeks 4, 8, and 12 for each participant.
Results: Secondary Endpoint-Proportion of Participants Free from any new Gd+ Enhancing T1 Lesions and New or Enlarging T2-weighted Lesions at Weeks 4, 8, and 12: This secondary endpoint was also met, and a summary of the analysis provided in Table 8.

[5] = most common AEs, n = 73, placebo 0
[6] = most common AEs, n = 73, placebo 2.8

With `C[C@H]1CN(C2COC2)CCN1c1ccc(Nc2cc(-c3ccnc(N4CCn5c(cc6c5CC(C)(C)C6)C4=O)c3CO)cn(C)c2=O)nc1` [Fenebrutinib, (S)-2-(3′-(hydroxymethyl)-1-methyl-5-((5-(2-methyl-4-(oxetan-3-yl)piperazin-1-yl)pyridin-2-yl)amino)-6-oxo-1,6-dihydro-[3,4′-bipyridin]-2′-yl)-7,7-dimethyl-2,3,4,6,7,8-hexahydro-1H-cyclopenta[4,5]pyrrolo[1,2-a]pyrazin-1-one] the “effect on T1 hypointense lesions” value ([1]; Week 4, 8, and 12, compared to placebo) was “reduced T1 hypointense lesions at all three time points”, the “proportion of patients with new T1 hypointense lesions, Week 12” value ([1]; Week 12, participants with a new lesion at that visit divided by participants with a scan at that visit) was 3.2% and the “patients with new T1 hypointense lesions after Week 4” value ([1]; after Week 4 of treatment, compared to placebo) was “few patients had new lesions after Week 4 of treatment”. For the same compound, the “Relative Reduction of T1 hypointense lesions, Week 4” value ([1]; vs placebo, Week 4, 95% CI −106%, 87%) was 48%, the “Relative Reduction of T1 hypointense lesions, Week 8” value ([1]; vs placebo, Week 8, 95% CI −62%, 92%) was 64% and the “Relative Reduction of T1 hypointense lesions, Week 12” value ([1]; vs placebo, Week 12, 95% CI −131%, 92%) was 58%. For the same compound, the “Relative Reduction of T1 hypointense lesions, Weeks 4, 8, and 12” value ([1]; vs placebo, Weeks 4, 8, and 12, 95% CI −12%, 89%) was 64%, the “presence in CSF relative to in vitro activity” value ([2]; after 12 weeks of continuous administration) was “present in the CSF at levels sufficient to reduce activation of B cells and microglia progenitor cells in vitro” and the concentration at 2016 h ([2]; human, csf, po, 200 mg, 11 patients, following 12 weeks of continuous administration, read-out: mean fenebrutinib CSF concentration) was 43.1 ng/mL. For the same compound, the concentration at 2016 h ([2]; human, csf, po, 200 mg, n = 4 patients, after 12 weeks of continuous administration, 200 mg BID oral, read-out: CSF concentration, Median (min, max)) was 50.2 ng/mL, the Kp at 2016 h ([2]; human, csf, po, 200 mg, n = 4 patients, after 12 weeks of continuous administration, total plasma, read-out: CSF:plasma ratio, Median (min, max)) was 0.061 and the concentration at 2016 h ([2]; human, plasma, po, 200 mg, n = 4 patients, after 12 weeks of continuous administration, 200 mg BID oral, read-out: Total plasma concentration, Median (min, max)) was 691 ng/mL. The “Patients with ≥1 AE, %” value ([3]; n = 73) was 38.4%, the “Patients with ≥1 AE, %” value ([3]; n = 73, listed as FEN) was 38% and the “withdrawal: abnormal hepatic transaminase levels” value ([3]; discontinuation required by protocol) was 4. For the same compound, the AE grade ([3]; double-blind treatment phase) was “All AEs were Grade 1 or 2, except for two Grade 3 asymptomatic liver transaminase level elevations”, the “AEs leading to withdrawal from the study” value ([3]; double-blind treatment phase) was “four AEs leading to withdrawal from the study” and the “serious AEs or deaths” value ([3]; double-blind treatment phase) was “No SAEs were reported”. The “serious AEs or deaths” value ([3]; double-blind treatment phase, listed as FEN) was “No serious AEs or deaths were reported”, the rate of infections ([3]; fenebrutinib vs placebo arms) was “balanced between the fenebrutinib and placebo arms” and the “hepatic transaminase level elevations, character” value ([3]; fenebrutinib-treated patients) was “reversible and asymptomatic”. For the same compound, the “withdrawal: hypersensitivity” value ([3]; in vivo) was 1, the “withdrawal: upper abdominal pain” value ([3]; in vivo) was 1 and the “withdrawal: upper abdominal pain; nausea and headache” value ([3]; in vivo) was 1. For the same compound, the “Abnormal hepatic enzyme levels, %” value [3, 5] was 5.5%, the “Nasopharyngitis, %” value [3, 5] was 2.7% and the “Upper abdominal pain, %” value [3, 5] was 2.7%. The “Headache, %” value [3, 6] was 4.1%, the “Nausea, %” value [3, 6] was 2.7% and the “Pharyngitis, %” value [3, 6] was 2.7%. The “Urinary tract infection, %” value ([3]; most common AEs, n = 73, placebo 5.6) was 5.5%, the “Patients with ≥1 AE leading to dose interruption, n (%)” value ([3]; n = 73) was 0 and the “Patients with ≥1 AE with fatal outcome, n (%)” value ([3]; n = 73) was 0. For the same compound, the “Patients with ≥1 SAE, n (%)” value ([3]; n = 73) was 0, the “Patients with ≥1 Grade 3 AE, %” value ([3]; n = 73, placebo 0) was 2.7% and the “Patients withdrawn from study due to an AE, %” value ([3]; n = 73, placebo 0) was 9.6%. For the same compound, the “Patients with ≥1 Related AE, %” value ([3]; n = 73, placebo 5.6) was 13.7%, the “Total no. of AEs” value ([3]; n = 73, placebo 19) was 40 and the “No. of patients free from T1 Gd+ and T2-weighted lesions, Week 4” value ([4]; Week 4, N = 70, placebo 21 of 36) was 51. The “Proportion free from new T1 Gd+ and new or enlarging T2-weighted lesions, Week 4” value ([4]; Week 4, N = 70, placebo 58.3%) was 72.9%, the “No. of patients free from T1 Gd+ and T2-weighted lesions, Week 8” value ([4]; Week 8, N = 67, placebo 20 of 34) was 63 and the “Proportion free from new T1 Gd+ and new or enlarging T2-weighted lesions, Week 8” value ([4]; Week 8, N = 67, placebo 58.8%) was 94.0%. For the same compound, the “No. of patients free from T1 Gd+ and T2-weighted lesions, Week 12” value ([4]; Week 12, N = 63, placebo 24 of 33) was 61, the “Proportion free from new T1 Gd+ and new or enlarging T2-weighted lesions, Week 12” value ([4]; Week 12, N = 63, placebo 72.7%) was 96.8% and the “No. of patients who are free from new T1 Gd+ and New or Enlarging T2-weighted Lesions During DBT” value ([4]; overall, weeks 4, 8, and 12, N = 70, placebo 18) was 51. The “Proportion of patients free from new T1 Gd+ and new or enlarging T2-weighted lesions, overall” value ([4]; overall, weeks 4, 8, and 12, N = 70, placebo 50.0%) was 72.9%, the “Odds Ratio, adjusted (free from new T1 Gd+ and new or enlarging T2-weighted lesions)” value ([4]; vs placebo, weeks 4, 8, and 12, 95% CI (exact) (1.317, 13.078), p-value (exact) 0.0117) was 4.005 and the “likelihood to be free from new T1 Gd+ lesions and new or enlarging T2-weighted lesions” value ([4]; weeks 4, 8, and 12, compared to placebo group) was “four times more likely to be free from new T1 Gd+ lesions and new or enlarging T2-weighted lesions”.
